Holding throughout (type): cell-based, human
Assay [1] concerns Golgi of HeLa cells. Nature of the assay: BFA-induced Golgi disassembly in cells prelabeled with 2. The following applies: HeLa cells prelabeled with 2 (10 nM, 30 min), BFA 10 μM.
For assay [2], the system named is Golgi of HeLa cells. Description: Time-lapse CLSM of Golgi fluorescence build-up. The following applies: over 24 minutes.
The test system of assay [3] is Golgi of HeLa cells. Description: CLSM Golgi labeling at ultralow concentrations. As to conditions: 4 hours.
The subject of assay [4] is Golgi of HeLa cells. Description: FRAP assay at the Golgi. The following applies: 500 nM, after 30-minute treatment.
Assay [5] has as its system Golgi of HeLa cells. Description: FRET co-assembly of 2 with quencher 7, Golgi fluorescence over 24 minutes. As to conditions: 2 (10 nM) with 7 (5, 10, 20 nM) or UBQ2-COOH (10, 20 nM).

With `C[C@H]1CCC/C=C/[C@@H]2C[C@H](O)C[C@H]2[C@H](O)/C=C/C(=O)O1` [BFA, brefeldin A], in assay [1], the “time at which the Golgi begins to lose its defined morphology” value came out at 5.5 minutes and the “time at which the Golgi collapses into the ER” value was 6.5 min.

For the molecule `CCCCCCCCCCCCC/C=C/[C@@H](O)[C@H](CO)NC(=O)CCCCC1=[N+]2C(=Cc3c(C)cc(C)n3[B-]2(F)F)C=C1` [BODIPY-C5-Ceramide], the “Golgi fluorescence in time-lapse imaging at 10 nM” value in assay [2] is “no significant Golgi fluorescence”. Also, the “Golgi fluorescence at 10 nM” value in assay [3] (10 nM) is reported as “very dim fluorescence at the Golgi”. The “Golgi localization at picomolar concentrations” value in assay [3] (picomolar concentrations (500 pM)) is “no detectable Golgi localization”. For the same molecule, the “immobile fraction (IMf) at the Golgi” value in assay [4] is recorded as 0.52.

Take `COc1cc(N=Nc2ccc([N+](=O)[O-])cc2)c(OC)cc1N=Nc1ccc(N(C)CCCC(=O)O)cc1` [UBQ2]: the “effect on Golgi fluorescence of 2 on co-treatment” value in assay [5] was “did not diminish Golgi fluorescence”.
